Test results taken from ChEMBL document CHEMBL1201862, “PubChem BioAssay data set” (2004).
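All cell lines were grown in 96-well plates and treated with compound for 48 hours. Here, GI50 denotes the concentration required for 50% inhibition of growth.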 Active and inactive are the calls of the source. Rule as the data show it: active = GI50 up to about 1.1 µM and inactive = higher. Where a SMILES comes first, the peptide text is derived from it. [ ]: non-standard residue; d: D form. 2Nal = N[CH](Cc1ccc2ccccc2c1)C(=O)O

How the values were obtained:
Assay in all cases: growth of human tumour cells (NCI), 48 h
SNB-78 = tested on: SNB-78
DMS-273 = tested on: DMS-273
XF498 = tested on: XF498
HOP-18 = tested on: HOP-18
DLD-1 = tested on: DLD-1
KM-20L2 = tested on: KM-20L2
LXFL 529 = tested on: LXFL 529
DMS-114 = tested on: DMS-114
M19-MEL = tested on: M19-MEL

Compound	GI50 (SNB-78)	GI50 (DMS-273)	GI50 (XF498)	GI50 (HOP-18)	GI50 (DLD-1)	GI50 (KM-20L2)	GI50 (LXFL 529)	GI50 (DMS-114)	GI50 (M19-MEL)
C/C=C(/CCCCNCCCC)[Si](C)(C)C	14.2 µM (inactive)	18.4 µM (inactive)	11.3 µM (inactive)	> 10 µM (inactive)	14.6 µM (inactive)	7.52 µM (inactive)	15.9 µM (inactive)	14.6 µM (inactive)	16.8 µM (inactive)
COC(=O)C1=CCC2c3[nH]c4ccccc4c3CCN2C1 (centres undefined)		> 354 µM (inactive)			> 354 µM (inactive)	> 354 µM (inactive)	> 354 µM (inactive)	> 354 µM (inactive)	> 354 µM (inactive)
CC1CC(=O)C(C(O)CC2CC(=O)N(c3ccccc3)C(=O)C2)C(C)C1 (centres undefined)	> 100 µM (inactive)	> 100 µM (inactive)		> 100 µM (inactive)	> 100 µM (inactive)	> 100 µM (inactive)	> 100 µM (inactive)	> 100 µM (inactive)	> 100 µM (inactive)
N#CC(C(=O)CCCC(=O)Nc1ccc(Cl)cc1Cl)c1ccccc1 (centres undefined)	> 100 µM (inactive)	> 100 µM (inactive)		> 100 µM (inactive)	> 100 µM (inactive)	> 100 µM (inactive)		> 100 µM (inactive)	> 100 µM (inactive)
COC(=O)/C(C#N)=C1\NN=NN1c1ccc(OC)cc1	> 100 µM (inactive)	> 100 µM (inactive)		> 100 µM (inactive)	> 100 µM (inactive)		> 100 µM (inactive)	> 100 µM (inactive)	> 100 µM (inactive)
O=C(O)c1ccc([C@@H]2C(=O)N(O)[C@@H]3C=CC[C@@H]32)cc1	> 100 µM (inactive)	> 100 µM (inactive)	> 100 µM (inactive)		> 100 µM (inactive)		> 100 µM (inactive)	> 100 µM (inactive)	> 100 µM (inactive)
Cn1cc(NC(=O)c2cc(NC(=O)Nc3cc(C(=O)Nc4cc(C(=O)NCCC(=N)N)n(C)c4)n(C)c3)cn2C)cc1C(=O)NCCC(=N)N	38.5 µM (inactive)	13.6 µM (inactive)	21 µM (inactive)	71.4 µM (inactive)	> 100 µM (inactive)	60.5 µM (inactive)	56.5 µM (inactive)	49.3 µM (inactive)	20.4 µM (inactive)
CCCCCCCCOCC(CO)OCCCCCCCC (centres undefined)		18.7 µM (inactive)		11.7 µM (inactive)	18 µM (inactive)	> 10 µM (inactive)	18.9 µM (inactive)	21.2 µM (inactive)	20 µM (inactive)
CC(NC(=O)C(N)Cc1ccccc1)C(=O)NC(Cc1ccc(O)cc1)C(=O)NC(Cc1c[nH]c2ccccc12)C(=O)NC(CCCCN)C(=O)NC(C(=O)NC(C)C(=O)NC(Cc1ccc2ccccc2c1)C(N)=O)C(C)C (centres undefined) (H-FAYWKVA[2Nal]-NH2; configuration not given here)	44.3 µM (inactive)	24.6 µM (inactive)	21.4 µM (inactive)	23.9 µM (inactive)	31.8 µM (inactive)	27.1 µM (inactive)		31.7 µM (inactive)	27 µM (inactive)
CCOC(OC1=C(C#N)CCCC1)C(CC)[Se]c1ccccc1 (centres undefined)	33.8 µM (inactive)	12 µM (inactive)	20.4 µM (inactive)	16.4 µM (inactive)	16.1 µM (inactive)	25.1 µM (inactive)	19.4 µM (inactive)	4.1 µM (inactive)	19.4 µM (inactive)
CCOC(=O)C(=O)CC1=Nc2ccccc2SC(c2cccc(C)c2)C1 (centres undefined)	16 µM (inactive)	19.6 µM (inactive)			17.8 µM (inactive)	17.9 µM (inactive)	18.1 µM (inactive)	14.9 µM (inactive)	18.8 µM (inactive)
c1ccc2c(c1)CCC/C2=N\OCC1CO1 (centres undefined)	> 100 µM (inactive)	> 100 µM (inactive)	37.6 µM (inactive)	66.2 µM (inactive)	73.3 µM (inactive)	> 100 µM (inactive)	64.3 µM (inactive)		> 100 µM (inactive)
CC(=O)O[C@]12CCC[C@H]1C1(O)C(O)CCC[C@H]12 (some centres undefined)	> 100 µM (inactive)	> 100 µM (inactive)	> 100 µM (inactive)	> 100 µM (inactive)		> 100 µM (inactive)	> 100 µM (inactive)	> 100 µM (inactive)	> 100 µM (inactive)
COC(=O)C(Cc1cc(OC)c(OC)c(OC)c1)c1ccc(OC)cc1 (centres undefined)	> 100 µM (inactive)	> 100 µM (inactive)		> 100 µM (inactive)	> 100 µM (inactive)	> 100 µM (inactive)	54.7 µM (inactive)	62.4 µM (inactive)	> 100 µM (inactive)
O=C(CSc1nc(-c2ccccc2)c(-c2ccccc2)[nH]1)NNC(=S)Nc1ccccc1	> 100 µM (inactive)	92.7 µM (inactive)	61.9 µM (inactive)		96.4 µM (inactive)	> 100 µM (inactive)	> 100 µM (inactive)	57 µM (inactive)	91.6 µM (inactive)
COc1cc2c(cc1OC)C(C#N)N(C(=O)c1ccccc1)C=C2OC(=O)c1ccccc1 (centres undefined)	30 µM (inactive)	21.7 µM (inactive)	26.5 µM (inactive)	22 µM (inactive)	29.6 µM (inactive)	52.4 µM (inactive)	20.6 µM (inactive)	31 µM (inactive)	33.7 µM (inactive)
CCc1cccc(C(C)C)c1NC(=O)C(=O)C1C(=O)NC(=O)NC1=O			> 100 µM (inactive)	> 100 µM (inactive)	> 100 µM (inactive)	> 100 µM (inactive)	> 100 µM (inactive)	> 100 µM (inactive)	> 100 µM (inactive)
COc1ccc2nccc(NCCCN3CCN(CCCNc4ccnc5ccc(OC)cc45)CC3)c2c1	0.873 µM (active)	0.418 µM (active)	0.201 µM (active)		0.843 µM (active)	0.703 µM (active)	0.179 µM (active)	0.128 µM (active)	0.652 µM (active)
COC(CN1C=C(Sc2ccccc2)CC1)OC	34.3 µM (inactive)		22.4 µM (inactive)	59.3 µM (inactive)	29 µM (inactive)	38.8 µM (inactive)		23.2 µM (inactive)	31.8 µM (inactive)
CC(C)(C)OC(=O)N[C@H]1CC(=O)c2ccccc2N(CC(=O)O)C1=O		> 100 µM (inactive)		> 100 µM (inactive)	> 100 µM (inactive)	> 100 µM (inactive)	> 100 µM (inactive)	> 100 µM (inactive)	> 100 µM (inactive)
Nc1nc2c(N)cc(C(F)(F)F)cc2nc1-c1ccccc1	> 100 µM (inactive)	> 100 µM (inactive)	50.2 µM (inactive)	> 100 µM (inactive)	> 100 µM (inactive)	> 100 µM (inactive)	64.9 µM (inactive)	86.5 µM (inactive)	> 100 µM (inactive)
Cc1ccc(S(=O)(=O)c2c(N)c3nc4ccccc4n3c3nc4ccccc4nc23)cc1		> 100 µM (inactive)			> 100 µM (inactive)	> 100 µM (inactive)	> 100 µM (inactive)	> 100 µM (inactive)	> 100 µM (inactive)
